The data set relates to APOE4 mice. In words: Barnes maze (spatial learning and memory) after doxorubicin treatment in APOE4 mice. The format is in vivo, mouse. Conditions: female APOE4 mice. How it is done: A study was conducted to evaluate the effects of RAGE inhibition on preventing CRCD. The study was performed using a mouse model of C57BL/6 J mice having the human APOE4 allele in the mouse APOE gene locus.
In the study, 24 female APOE mice were divided evenly into three treatment groups: Group 1, which received a vehicle control; Group 2, which received doxorubicin, a chemotherapy medication used to treat a variety of cancers that include breast cancer, bladder cancer, Kaposi's sarcoma, lymphoma, and acute lymphocytic leukemia; and Group 3, which received doxorubicin and FPS-ZM1, RAGE antagonist. Groups 2 and 3 were administered the doxorubicin as two doses of 5 mg/kg, separated by one week. Group 3 was administered 2 mg/kg of FPS-ZMI twice per week by intraperitoneal injection starting one week before the first administration of doxorubicin and continuing throughout the study.
Four weeks after doxorubicin treatment (or the vehicle control) was completed, mice were analyzed for hippocampal based memory via the Barnes maze (San Diego Instruments Inc., San Diego, CA). […] The apparatus was captured by overhead video and assessed using ANY-maze™ software. […]
The time to identify the correct (escape) hole on the final day is compared between groups. Primary latency, defined as the time for the mouse to make a first nose poke into the escape hole, was assessed. […]

In the case of `O=C(c1ccc(Cl)cc1)N(Cc1ccccc1)C1CCCCC1` [FPS-ZMI], for the setting “Group 3: doxorubicin two doses of 5 mg/kg plus FPS-ZM1 2 mg/kg intraperitoneal twice per week from one week before doxorubicin, training day 4, p=0.12 vs Group 2”, the “primary latency (latency to identify the escape hole)” value was 28.0 s. `COc1cccc2c1C(=O)c1c(O)c3c(c(O)c1C2=O)C[C@@](O)(C(=O)CO)C[C@@H]3O[C@H]1C[C@H](N)[C@H](O)[C@H](C)O1` [doxorubicin]: for the setting “Group 2: doxorubicin two doses of 5 mg/kg one week apart, Barnes maze training day 4, four weeks after doxorubicin, Group 1 control 24.6 seconds”, the “primary latency (time to first nose poke into the escape hole)” value turned out to be 58.2 s.

Source of the values: US20240226065A1, “USE OF RAGE INHIBITORS TO TREAT CANCER-RELATED COGNITIVE DECLINE” (Georgetown University, priority 2021, published 2024).
